Laboratory results as given in patent US20040242639A1, “Phospholipase C inhibitors for use in treating inflammatory disorders” (priority 2003, published 2004).

Molecular target: T1, human PLC-β2 (Homo sapiens, UniProt Q00722)
T1 construct: made in house; host or cells: Sf9 cells (Spodoptera frugiperda), recombinant baculovirus
Test: PLC assay using FlashPlates (immobilized [3H]PIP2 hydrolysis)
Assay type: biochemical
Settings: for IC50: 96-well Phospholipid FlashPlates coated with [3H]PIP2, purified recombinant human PLC-β2 or cytosolic human PLC-β2; for inhibition at 10 µM: read-out: %
Description: The hydrolysis of phosphatidylinositol-4,5-bisphosphate (PIP2) by a specific phospholipase C-β2 (PLC-β2) produces two intracellular messengers, diacylglycerol (DAG) and inositol 1,4,5-trisphosphate ([…]), which mediate the activation of protein kinase C and intracellular Ca^2+ release. A conventional organic solvent extraction method is widely used for PLC assays to isolate IP3 from the substrate […]. The conventional PLC-β2 assay, however is terminated by addition of acidified organic solvents and subsequent extraction and phase separation. […] Accordingly, a preferred method to test the compounds of the present invention, was developed utilizing a 96-well plate assay for PLC-β2 using immobilized radiolabeled substrate to quantitatively measure the reduction in the substrate level without a need for organic solvent extraction. The automated PLC-β2 assay described herein provides a convenient method for quantitative measurement of phospholipase C activities in a high throughput fashion.
Ninety-six well Phospholipid FlashPlates were coated with 0.2 mL of 50 mM Tris/HCl (pH 7.4), 0.01% Ac-BSA and 50,000 cpm of ^[3H]PIP2 (phosphatidylinositol-4,5-bisphosphate) at 4° C. for 72 h. The wells were aspirated and washed twice with PBS. The reactions were conducted directly in the wells in PLC reaction buffer containing 50 mM Tris/HCl (pH 7.2), 2.75 mM EDTA (pH 7.3), 80 mM KCl, 10 mM LiCl, 0.04% DOC and 2 mM CaCl2 in the absence or presence of the purified recombinant human PLC-β2 (prepared as described hereafter) or cytosolic human PLC-β2 from […]. Reduction of radioactivity was monitored by a Packard TopCount instrument (Packard Instrument Company, Conn., USA).
Suspension cultures of Sf9 cells were maintained in a spinner flask at 27° C. and stirred at 90 rpm. The cells were grown in Grace's media supplemented with 10% (v/v) fetal bovine serum, 3.3 g/l yeastolate, 3.3 g/l lactalbumin hydrosylate, glutamine (6.4 mM final), […] gentamicin, and 50 µg/ml kanamycin. Suspension of Sf9 cells (1.0×10^6 cells/ml) were infected with 5 pfu/cell of recombinant baculovirus encoding PLC-β2 and incubated at 27° C. for 72 h. The cells were collected by centrifugation (500×g, 7 min, 4° C.) and disrupted by hypotonic lysis buffer containing 20 mM Tris/HCl, pH 7.4, 5 mM MgCl2, 2 mM EGTA, 200 μM PMSF, 200 μM benzamidine and 1 μM pepstatin A. The lysate was sonicated on ice and the nuclei and unbroken cells removed by centrifugation (500×g, 5 min, 4° C.). The supernatant was recovered and clarified by centrifugation (34,000 rpm, 60 min, 4° C.). The supernatant was used as a crude cytosolic fraction (Paterson, A., Boyer, J. L., Watts, V. J., Morris, A. J., Price, E. M., Harden, T. K. (1995) Concentration of enzyme-dependent activation of PLC β1 and PLC β2 by Gα11 and βγ subunits. Cellular Signalling 7, 709-720).
Crude cytosol prepared from Sf9 cells expressing PLC-β2 was purified initially by chromatography on a 10 ml column of Q-Sepharose FF, equilibrated in buffer A (25 mM HEPES, pH 7.2,2 mM DTT, 2mM EDTA, 2 mM EGTA, 200 μM PMSF, 200 μM benzamidine, 1 μM pepstatin A containing 10 mM NaCl). […]

T1 sequence (Q00722 whole entry): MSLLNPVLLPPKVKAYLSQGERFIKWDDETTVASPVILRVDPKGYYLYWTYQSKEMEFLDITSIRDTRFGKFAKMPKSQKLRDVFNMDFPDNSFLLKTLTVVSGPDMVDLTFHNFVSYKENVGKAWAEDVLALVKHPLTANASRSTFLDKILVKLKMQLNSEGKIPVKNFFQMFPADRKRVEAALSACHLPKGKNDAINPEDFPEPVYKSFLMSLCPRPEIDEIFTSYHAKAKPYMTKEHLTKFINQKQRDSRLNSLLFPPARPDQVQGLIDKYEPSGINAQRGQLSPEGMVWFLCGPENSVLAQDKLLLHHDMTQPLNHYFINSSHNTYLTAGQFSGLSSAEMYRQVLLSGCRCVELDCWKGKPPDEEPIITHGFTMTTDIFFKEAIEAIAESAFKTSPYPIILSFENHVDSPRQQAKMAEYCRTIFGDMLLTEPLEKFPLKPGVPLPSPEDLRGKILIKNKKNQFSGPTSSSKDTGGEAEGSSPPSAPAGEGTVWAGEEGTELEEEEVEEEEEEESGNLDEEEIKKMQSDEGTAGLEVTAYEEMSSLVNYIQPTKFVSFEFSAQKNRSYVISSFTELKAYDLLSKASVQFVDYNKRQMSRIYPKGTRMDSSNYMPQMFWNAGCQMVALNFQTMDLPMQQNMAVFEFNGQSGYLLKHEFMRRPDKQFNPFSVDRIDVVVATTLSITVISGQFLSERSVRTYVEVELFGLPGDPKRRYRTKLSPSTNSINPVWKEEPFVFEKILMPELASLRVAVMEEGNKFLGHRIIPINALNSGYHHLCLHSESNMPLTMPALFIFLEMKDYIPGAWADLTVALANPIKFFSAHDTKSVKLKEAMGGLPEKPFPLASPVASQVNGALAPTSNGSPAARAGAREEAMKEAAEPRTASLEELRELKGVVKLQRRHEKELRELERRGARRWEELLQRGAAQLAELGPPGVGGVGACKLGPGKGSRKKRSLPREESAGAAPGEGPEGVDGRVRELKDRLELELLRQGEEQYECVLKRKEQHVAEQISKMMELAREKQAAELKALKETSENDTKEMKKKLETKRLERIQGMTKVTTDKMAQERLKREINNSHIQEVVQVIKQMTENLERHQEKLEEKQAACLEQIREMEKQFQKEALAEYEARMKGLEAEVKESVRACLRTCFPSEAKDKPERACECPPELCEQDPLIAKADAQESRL

| IC50 [µM] | SMILES | inhibition at 10 µM [%] |
| --- | --- | --- |
| 3.4 | NC(=O)c1ccc(N2CCC(Cc3ccccc3)CC2)c(NC(=O)Nc2ccccc2)c1 [Cpd 1, 3-[[(phenylamino)carbonyl]amino]-4-[4-(phenylmethyl)-1-piperidinyl]-benzamide] | – |
| 7.1 | NC(=O)c1ccc(N2CCC(c3ccccc3)CC2)c(NC(=O)Nc2ccccc2)c1 [Cpd 2, 3-[[(phenylamino)carbonyl]amino]-4-(4-phenyl-1-piperidinyl)-benzamide] | – |
| 11 | NC(=O)c1ccc(N2CCC(c3ccccc3)CC2)c(NC(=O)Nc2ccc3c(c2)OCO3)c1 [Cpd 3, 3-[[(1,3-benzodioxol-5-ylamino)carbonyl]amino]-4-(4-phenyl-1-piperidinyl)-benzamide] | – |
| – | NC(=O)c1ccc(N2CCC(C(c3ccccc3)c3ccccc3)CC2)c(NC(=O)Nc2ccccc2)c1 [Cpd 6, 4-[4-(diphenylmethyl)-1-piperidinyl]-3-[[(phenylamino)carbonyl]amino]-benzamide] | 60.7 |
| – | NC(=O)c1ccc(N2CCC(=C(c3ccccc3)c3ccccc3)CC2)c(NC(=O)Nc2ccccc2)c1 [Cpd 7, 4-[4-(diphenylmethylene)-1-piperidinyl]-3-[[(phenylamino)carbonyl]amino]-benzamide] | 49.8 |
